Assay results from ChEMBL document CHEMBL1201862, “PubChem BioAssay data set” (2004).
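Cells were grown in 96-well plates and exposed to each compound for 48 hours at five concentrations; endpoints were interpolated linearly between bracketing concentrations, or set to the highest concentration if not reached. GI50 is the concentration that inhibits growth by half.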 Activity calls are given as the source filed them. Cut-off read from the data, not from the text of the source: active = GI50 up to about 1.1 µM and inactive = higher.

Experiments:
Experiment in all cases: DTP human tumour cell line panel, 48 h
[1] = system: ACHN
[2] = system: OVCAR-5
[3] = system: TK-10
[4] = system: OVCAR-8
[5] = system: DU-145
[6] = system: COLO 205
[7] = system: HOP-92
[8] = system: BT-549
[9] = system: MOLT-4
[10] = system: CAKI-1
[11] = system: SK-MEL-5
[12] = system: UO-31
[13] = system: NCI-H522
[14] = system: M14
[15] = system: 786-0
[16] = system: HT-29
[17] = system: MCF7
[18] = system: NCI/ADR-RES
[19] = system: A549
[20] = system: SNB-19
[21] = system: IGROV-1
[22] = system: HCT-116
[23] = system: MDA-MB-231
[24] = system: SF-295
[25] = system: MDA-N
[26] = system: HOP-62
[27] = system: NCI-H226
[28] = system: RPMI-8226
[29] = system: OVCAR-3
[30] = system: SW-620
[31] = system: U-251
[32] = system: HL-60
[33] = system: UACC-62
[34] = system: LOX IMVI
[35] = system: OVCAR-4
[36] = system: Malme-3M
[37] = system: SK-MEL-2
[38] = system: NCI-H23
[39] = system: SR
[40] = system: MDA-MB-435
[41] = system: UACC-257
[42] = system: T47D
[43] = system: SF-268
[44] = system: PC-3
[45] = system: CCRF-CEM
[46] = system: EKVX
[47] = system: SK-OV-3
[48] = system: HCC 2998
[49] = system: SNB-75
[50] = system: KM12
[51] = system: SK-MEL-28
[52] = system: K562
[53] = system: HCT-15
[54] = system: Hs-578T
[55] = system: SN12C
[56] = system: SF-539
[57] = system: NCI-H460

In the case of `CCCCCCOP(=O)(OCCCCCC)OC(C(=O)OC)C(F)(F)F` (stereo not given), the GI50 [1] is reported as > 100 µM (inactive), the GI50 [2] is reported as > 100 µM (inactive) and the GI50 [3] is reported as > 100 µM (inactive). For the same compound, the GI50 [4] was > 100 µM (inactive), the GI50 [5] was > 100 µM (inactive) and the GI50 [6] was > 100 µM (inactive). For the same compound, the GI50 [7] was > 100 µM (inactive), the GI50 [8] was > 100 µM (inactive) and the GI50 [9] was > 100 µM (inactive). The GI50 [10] was > 100 µM (inactive), the GI50 [11] was > 100 µM (inactive) and the GI50 [12] was > 100 µM (inactive). For the same compound, the GI50 [13] was > 100 µM (inactive), the GI50 [14] was > 100 µM (inactive) and the GI50 [15] was > 100 µM (inactive). For the same compound, the GI50 [16] was > 100 µM (inactive), the GI50 [17] was > 100 µM (inactive) and the GI50 [18] was > 100 µM (inactive). The GI50 [19] was > 100 µM (inactive), the GI50 [20] was > 100 µM (inactive) and the GI50 [21] was > 100 µM (inactive). The GI50 [22] was > 100 µM (inactive), the GI50 [23] was > 100 µM (inactive) and the GI50 [24] was > 100 µM (inactive). The GI50 [25] was > 100 µM (inactive), the GI50 [26] was > 100 µM (inactive) and the GI50 [27] was > 100 µM (inactive). The GI50 [28] was > 100 µM (inactive), the GI50 [29] was > 100 µM (inactive) and the GI50 [30] was > 100 µM (inactive). For the same compound, the GI50 [31] was > 100 µM (inactive), the GI50 [32] was > 100 µM (inactive) and the GI50 [33] was > 100 µM (inactive). The GI50 [34] was > 100 µM (inactive), the GI50 [35] was > 100 µM (inactive) and the GI50 [36] was > 100 µM (inactive). For the same compound, the GI50 [37] was > 100 µM (inactive), the GI50 [38] was > 100 µM (inactive) and the GI50 [39] was > 100 µM (inactive). The GI50 [40] was > 100 µM (inactive), the GI50 [41] was > 100 µM (inactive) and the GI50 [42] was > 100 µM (inactive). The GI50 [43] was > 100 µM (inactive), the GI50 [44] was > 100 µM (inactive) and the GI50 [45] was > 100 µM (inactive). For the same compound, the GI50 [46] was > 100 µM (inactive), the GI50 [47] was > 100 µM (inactive) and the GI50 [48] was > 100 µM (inactive). For the same compound, the GI50 [49] was > 100 µM (inactive), the GI50 [50] was > 100 µM (inactive) and the GI50 [51] was > 100 µM (inactive). The GI50 [52] was > 100 µM (inactive), the GI50 [53] was greater than 100 µM and the GI50 [54] was > 100 µM (inactive). For the same compound, the GI50 [55] was > 100 µM (inactive) and the GI50 [56] was > 100 µM (inactive).
In the case of `COC(=O)c1c(C)cc(OC)c(C/C=C(\C)CCCc2coc(C=C(C)C)c2)c1OC`, the GI50 [1] is reported as > 100 µM (inactive), the GI50 [2] is reported as > 100 µM (inactive) and the GI50 [3] is reported as > 100 µM (inactive). The GI50 [4] was > 100 µM (inactive), the GI50 [5] was > 100 µM (inactive) and the GI50 [6] was > 100 µM (inactive). The GI50 [7] was > 100 µM (inactive), the GI50 [8] was > 100 µM (inactive) and the GI50 [9] was 37.4 µM (inactive). The GI50 [10] was > 100 µM (inactive), the GI50 [11] was > 100 µM (inactive) and the GI50 [12] was > 100 µM (inactive). The GI50 [13] was 14.9 µM (inactive), the GI50 [14] was > 100 µM (inactive) and the GI50 [15] was > 100 µM (inactive). For the same compound, the GI50 [16] was 74.8 µM (inactive), the GI50 [17] was > 100 µM (inactive) and the GI50 [18] was > 100 µM (inactive). The GI50 [19] was > 100 µM (inactive), the GI50 [20] was > 100 µM (inactive) and the GI50 [21] was > 100 µM (inactive). The GI50 [22] was > 100 µM (inactive), the GI50 [23] was > 100 µM (inactive) and the GI50 [24] was > 100 µM (inactive). For the same compound, the GI50 [25] was > 100 µM (inactive), the GI50 [57] was > 100 µM (inactive) and the GI50 [26] was > 100 µM (inactive). For the same compound, the GI50 [28] was 99.5 µM (inactive), the GI50 [29] was > 100 µM (inactive) and the GI50 [30] was > 100 µM (inactive). The GI50 [31] was > 100 µM (inactive), the GI50 [32] was 21.9 µM (inactive) and the GI50 [33] was > 100 µM (inactive). The GI50 [34] was > 100 µM (inactive), the GI50 [35] was > 100 µM (inactive) and the GI50 [37] was > 100 µM (inactive). For the same compound, the GI50 [38] was > 100 µM (inactive), the GI50 [39] was 7.6 µM (inactive) and the GI50 [40] was > 100 µM (inactive). For the same compound, the GI50 [41] was > 100 µM (inactive), the GI50 [42] was 43 µM (inactive) and the GI50 [43] was 1.71 µM (inactive). For the same compound, the GI50 [44] was > 100 µM (inactive), the GI50 [45] was 41.5 µM (inactive) and the GI50 [46] was > 100 µM (inactive). The GI50 [48] was > 100 µM (inactive), the GI50 [49] was 21.3 µM (inactive) and the GI50 [50] was > 100 µM (inactive). The GI50 [51] was > 100 µM (inactive), the GI50 [52] was > 100 µM (inactive) and the GI50 [53] was greater than 100 µM. The GI50 [54] was 18.2 µM (inactive), the GI50 [55] was > 100 µM (inactive) and the GI50 [56] was 49 µM (inactive).
